The nature of series [1]: Pharmacokinetics and biodistribution in CD-1 mice. The class given is in vivo. As for the experimental part:
Pharmacokinetic studies were carried out in normal CD-1 mice and nude mice bearing PC3 xenograft tumors as described previously. Briefly, male CD-1 mice were divided randomly into four groups with three mice per time point. One group received 20 mg/kg of GS25 in PEG400:EtOH:saline by intravenous injection into the tail vein. One group of mice received GS25 in PEG400:EtOH:saline (57.1:14.3:28.6, v/v/v) at a dose of 100 mg/kg by oral administration. Two groups received GS25NP at a dose of 20 mg/kg and 100 mg/kg by oral administration. Nude mice bearing PC3 xenografts were divided into two groups and given GS25 and GS25NP at a dose of 100 mg/kg by oral administration. For orally-dosed mice, the plasma and various tissues (tumor, liver, lungs, kidneys, spleen, heart, brain, pancreas, fat, stomach, stomach contents, small intestine, small intestine contents, large intestine, and large intestine contents) were collected at 0, 15, 30, and 60 min, and 2, 4, 8, 24, 48, and 72 h after treatment. For mice that received an i.v. injection, various tissues were collected at 0, 5, 10, 30, and 60 min, and 2, 4, 8, 24, 48, and 72 h after treament. The plasma and tissue samples were stored at −80°C until they were analyzed by LC-MS/MS.

Series [2] has as its system Caco-2 cell monolayers. Nature of the series: Caco-2 cell monolayer permeability assay. In kind it is in vitro ADME, Human. The settings on record: apical to basolateral, 37°C, pH 6.0. Here is the method: The Caco-2 cell monolayer permeability assay was performed as reported previously. In brief, Caco-2 cells were seeded onto polycarbonate 6-well Transwell® inserts (mean pore size 3.0 μm, Corning Costar Inc., NY, USA) at a density of 4 × 10^5 cells/well, then the confluent monolayers (10–12 days) were used for permeability studies. The transepithelial electrical resistance (TEER) of the monolayer was measured using an epithelial voltohmmeter (EVOM, WPI Inc., USA) to determine the formation of the monolayer and its integrity during the experiment. The studies were carried out in HBSS containing 30 mM HEPES at pH 6.0. Monolayers were washed with HBSS prior to the experiment, after which 0.5 and 1.2 mL of HBSS was placed into the upper and lower compartments, respectively. A total volume of 100 μL of solution (1 or 5 μg/mL) was taken from the lower compartment at regular intervals over 120 min and replaced with the same volume of fresh buffer, followed by a LC-MS/MS analysis. Apparent permeability coefficients (Papp) were calculated using the equation: (∂Q/∂t)/(A*C0), where “∂Q/∂t” is the permeability rate of the drug across the cells, “A” is the diffusion area of the monolayer and “C0” is the initial concentration of GS25 in the upper compartment.
Background: Caco-2 cells form a polarised layer with tight junctions and transporters.

Series [3] deals with PC3 (p53 null) cells. Nature of the series: Cell viability, MTT assay, PC3. In kind it is cell-based, Human. The settings on record: GS25 equivalent. As for the experimental part:
(§1) Assays for cell viability and apoptosis were performed as described previously. In brief, 3–4 × 10^4 cells were seeded in a 96-well plate and treated with various concentrations of GS25 or GS25NP for 24, 48, or 72 h for the MTT assay. To detect apoptosis, 2–3 × 10^5 cells were seeded in 6-well plates and were treated with GS25 or GS25NP for 48 h. Cells positive for Annexin V-FITC and PI were counted on a BD FACSVerse instrument (BD Biosciences, CA, USA).
(Formazan colour is commonly taken as a measure of viable cells.)

Series [4] deals with LNCaP cells. Nature of the series: Apoptosis, Annexin V-FITC, LNCaP. The settings on record: 12.3 μg/mL, 48 h. In kind it is cell-based, Human. As for the experimental part: as §1
Series [5] has as its system PC3 cells. The experiment in a line: Apoptosis, Annexin V-FITC, PC3. The class given is cell-based, Human. The following applies: PC3, 12.3 μg/mL, 48 h. Here is the method:
as §1

Series [6] concerns PC3 xenograft tumors. Nature of the series: In vivo efficacy and host toxicity in PC3 prostate cancer xenograft model. Set-up: species or system nude mice. As for the experimental part:
The animal study protocol was approved by the Institutional Animal Use and Care Committee of the Texas Tech University Health Sciences Center. Male athymic pathogen-free nude mice (nu/nu, 4–6 weeks) were purchased from Charles River Laboratories (Wilmington, MA). The PC3 human prostate cancer xenografts were established as reported previously. Briefly, a total of 5 × 10^6 PC3 cells (in 0.1 mL) were subcutaneously injected into the left inguinal area of the mice. All animals were monitored for activity, physical condition, body weight, and tumor growth. When the tumor volume reached ~ 100 mm^3, the mice bearing PC3 xenografts were randomly divided into treatment and control groups (10 mice/each group). GS25NP was dissolved in water and administered by oral gavage at a dose of 20 mg/kg/d or 100 mg/kg/d, 5 day/week for 4 weeks, while GS25 in PEG400:EtOH:saline (57.1:14.3:28.6, v/v/v) was administered at a dose of 100 mg/kg/d for 4 weeks. The control groups received vehicle only or void NPs. At the end of the experiment, xenograft tumors and various organs (liver, lungs, kidneys, spleen, heart, and brain) were excised and snap frozen for Western blotting, immunohistochemical studies, TUNEL assays, and hematoxylin and eosin staining.
All of the staining assays were performed as described previously. Briefly, tissues were fixed and embedded in paraffin, cut into 5 μm sections, and then affixed onto glass slides. For the immunohistochemical studies, the tumor sections were blocked and incubated with a biotinylated anti-human MDM2 antibody (diluted 1:50 in 5% BSA in PBS) for 1–2 h at room temperature. Sections were then incubated with pre-diluted streptavidin-peroxidase HRP conjugates and stained with DAB chromogen according to the manufacturer's instructions. Finally, sections were lightly counterstained with hematoxylin. […] Tissue sections were analyzed under a phase-contrast Olympus microscope (Olympus America Inc).

Series [7] concerns DU145 (p53 mutant) cells. Nature of the series: Cell viability, MTT assay, DU145. The class given is cell-based, Human. The settings on record: GS25 equivalent. As for the experimental part:
as §1

Series [8] concerns DU145 cells. Nature of the series: Apoptosis, Annexin V-FITC, DU145. In kind it is cell-based, Human. The following applies: DU145, 12.3 μg/mL, 48 h. As for the experimental part:
as §1

Series [9] can be described thus: Maximum tolerated dose (MTD) study. The class given is in vivo. The following applies: CD-1 mice, oral. As for the experimental part:
To assess the possible host toxicity of GS25 and GS25NP and establish initial doses for in vivo treatment, a multi-dose MTD study was initially performed for both GS25 and GS25NP at a dose of 200 mg/kg for 7 days. […] The toxicity studies were continued with dose of 400 mg/kg/d for 7 days using a similar protocol. At the end of the study, all mice were euthanized, and various tissues (liver, lungs, kidneys, spleen, heart, and brain) were collected for a pathological analysis.

Series [10] deals with MDM2. Nature of the series: Western blotting of MDM2 and apoptosis-related proteins in prostate cancer cells. The settings on record: 2.5 μg/mL, 24 h, LNCaP, DU145, PC3 cells. The class given is cell-based, Human. Here is the method: In the in vitro studies, prostate cancer cells with or without GS25 or GS25NP treatment were lysed in NP40 lysis buffer containing a protease inhibitor mixture (Sigma, St. Louis, MO, USA). In the in vivo studies, tumor tissues were removed and homogenized in NP40 lysis buffer (100 mg tumor tissue/1 mL NP40 buffer), and the supernatants of the homogenates was collected. Then, the cell lysates and tumor homogenates were subjected to Western blotting analyses for the expression levels of MDM2 and other related proteins using the methods described in our previous studies.
(A western blot detects proteins with antibodies after separation by electrophoresis.)

The subject of series [11] is LNCaP (p53 wild-type) cells. Nature of the series: Cell viability, MTT assay, LNCaP. The following applies: GS25 equivalent. The class given is cell-based, Human. As for the experimental part: as §1
The mark [12] stands for this setting: nude mice bearing PC3 xenografts, 4-week oral treatment (GS25 100 mg/kg; GS25NP 20 and 100 mg/kg).

The values below come from PMC4673272, “Oral nano-delivery of anticancer ginsenoside 25-OCH3-PPD, a natural inhibitor of the MDM2 oncogene: Nanoparticle preparation, characterization, in vitro and in vivo anti-prostate cancer activity, and mechanisms of action” (Oncotarget, 2015).

Regarding `COC(C)(C)CCC[C@](C)(O)[C@H]1CC[C@]2(C)[C@@H]1[C@H](O)C[C@@H]1[C@@]3(C)CC[C@H](O)C(C)(C)[C@@H]3CC[C@]12C` [GS25, 20(s)-25-methoxyl-dammarane-3beta, 12beta, 20-triol], in series [1] (100 mg/kg oral vs 20 mg/kg i.v.), the Oral bioavailability is given as ~ 14.9%. In series [1] (plasma, 100 mg/kg, p.o.), this compound gave an AUC0-t of 3500 ng·h/mL. In [1] (plasma, 100 mg/kg, p.o.), this compound yielded a Cmax of 900 ng/mL. In addition, the T1/2 in series [1] (plasma, 100 mg/kg, p.o.) was found to be 2.1 h. Moreover, in series [2], the “Apparent permeability coefficient (Papp)” value is 38 ×10⁻⁶ cm/s. Further, the “IC50 PC-3” value was found to be 10.9 µg/mL in series [3] (treatment time 24 h), 6.7 µg/mL in series [3] (treatment time 48 h) and 3.8 µg/mL in [3] (treatment time 72 h). Further, the Apoptotic cells in [4] was found to be 28.5%; in series [5], 22.9%; in series [8] it was 18.2%. The “Inhibition of PC3 xenograft tumor growth” value in series [6] (100 mg/kg oral, 5 days/week for 4 weeks) is given as “approximately 41%”. The “Change in average body weight” value in [6] (setting [12]) was “no significant changes in the average body weights”. Also, the “Histological findings in liver, lungs, kidneys, spleen, heart, brain vs control” value in [6] (setting [12]) is “no significant differences in the histological findings”. For the same compound, the “IC50 DU145” value came out at 13.1 µg/mL in series [7] (treatment time 24 h), 8.0 µg/mL in [7] (treatment time 48 h) and 5.4 µg/mL in series [7] (treatment time 72 h). Further, the “Body weight change in MTD study” value in series [9] (200 or 400 mg/kg/d for 7 days) was “No significant decrease in mouse body weight”. The “Histological examination of liver, lungs, kidneys, spleen, heart, brain vs vehicle” value in [9] (200 or 400 mg/kg/d for 7 days) was “no significant differences among the groups”. The “Toxicity in MTD study” value in series [9] (up to 400 mg/kg/d for 7 days) was “no toxicity”. Also, the “Effect on MDM2 and apoptosis-associated protein levels (p53, Bax, cleaved-PARP)” value in series [10] is “did not produce significant effects”. The “IC50 LNCaP” value in series [11] (treatment time 24 h) came to 18.3 µg/mL; in [11] (treatment time 48 h), 11.6 µg/mL; in series [11] (treatment time 72 h) it was 8.0 µg/mL.

In general, Cmax refers to the highest concentration seen after dosing.
